Values quoted from earlier work as cited in US8158685B2, “Method for bone growth” (priority 2004, dated 2012).

Columns and labels:
[1] = system: bone graft; conditions: fluoride alone added to bone graft material
[2] = system: spine; conditions: immediate-release form, 75 mg/day with calcium carbonate over 4 years

SMILES | improvement/increase in bone density [1] [%] | bone density increase [2] [%] | effect on spinal fractures [2]
F [fluoride] | 20 | – | –
[F-].[Na+] [sodium fluoride] | – | 35 | failed to reduce spinal fractures
